Test results: publication PMC4161160 (Journal of Medicinal Chemistry, 2014)
“And” between values parts separate entries of the source, which are not always exact repeats. Equal values may be shown once. Read-outs that look alike come from different tables or passages of the source. One block for each compound: values may come before it.

Tests used:
[1] = Microsomal stability assay, human liver microsomes; type: in vitro ADME; settings: for Fold improvement of metabolic stability in human microsomes: compared to parent SMART compound; for T1/2 in human liver microsomes: 0.5 μM compound, 1 mg/mL microsomal protein
[2] = system: LNCaP; assay: Antiproliferative SRB assay, LNCaP prostate cancer cells; type: cell-based, human; settings: compared to SMART compound 10 and 4
[3] = Metabolite identification in human liver microsomes; type: in vitro ADME; settings: 50 μM compound, 1 mg/mL microsomal protein, high resolution MS
[4] = molecular target: Bovine brain tubulin (Bos taurus, UniProt P81947+Q6B856); assay: In vitro tubulin polymerization assay; type: biochemical; settings: for Inhibition of tubulin polymerization: 20 min incubation, compared to vehicle
[5] = system: A375; assay: Antiproliferative SRB assay, A375 melanoma cells; type: cell-based; settings: compared to SMART compound 10 and 4
[6] = Microsomal stability, over the tested liver microsome species; type: in vitro ADME; settings: mouse, rat
[7] = Microsomal stability assay, rat liver microsomes; type: in vitro ADME; settings: 0.5 μM compound, 1 mg/mL microsomal protein
[8] = Microsomal stability assay, mouse liver microsomes; type: in vitro ADME; settings: 0.5 μM compound, 1 mg/mL microsomal protein
[9] = system: prostate cancer cells; assay: Antiproliferative activity, prostate cancer cells overall; type: cell-based, human; settings: compared to parent PAT compound
[10] = cited from earlier work
[11] = cited from earlier work; remark: listed apart in the source

Bovine brain tubulin, sequence (Q6B856 whole entry): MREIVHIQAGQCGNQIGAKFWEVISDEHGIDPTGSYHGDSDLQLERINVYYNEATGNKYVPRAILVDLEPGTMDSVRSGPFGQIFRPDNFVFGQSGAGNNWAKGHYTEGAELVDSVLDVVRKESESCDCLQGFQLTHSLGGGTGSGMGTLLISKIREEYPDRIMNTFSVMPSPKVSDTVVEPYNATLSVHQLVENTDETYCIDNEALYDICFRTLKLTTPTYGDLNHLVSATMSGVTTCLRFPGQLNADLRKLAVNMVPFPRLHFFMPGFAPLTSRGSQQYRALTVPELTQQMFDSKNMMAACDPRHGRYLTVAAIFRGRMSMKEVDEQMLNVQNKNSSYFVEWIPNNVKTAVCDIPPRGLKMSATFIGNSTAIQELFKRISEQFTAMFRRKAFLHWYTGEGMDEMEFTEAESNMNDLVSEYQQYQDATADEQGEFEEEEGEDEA
Bovine brain tubulin, sequence (P81947 whole entry): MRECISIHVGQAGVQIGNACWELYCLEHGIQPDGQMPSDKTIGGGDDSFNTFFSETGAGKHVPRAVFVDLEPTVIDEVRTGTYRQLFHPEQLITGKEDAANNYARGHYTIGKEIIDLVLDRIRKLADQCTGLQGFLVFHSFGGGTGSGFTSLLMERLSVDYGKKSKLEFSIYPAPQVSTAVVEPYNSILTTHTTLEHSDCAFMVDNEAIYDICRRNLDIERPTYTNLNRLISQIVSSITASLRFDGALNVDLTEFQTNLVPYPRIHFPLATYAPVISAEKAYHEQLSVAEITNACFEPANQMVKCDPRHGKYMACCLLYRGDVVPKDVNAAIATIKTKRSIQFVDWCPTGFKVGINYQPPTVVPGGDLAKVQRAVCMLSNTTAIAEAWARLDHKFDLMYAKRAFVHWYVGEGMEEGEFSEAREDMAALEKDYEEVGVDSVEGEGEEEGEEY

Compound: COc1cc(-c2nccc3[nH]c(-c4ccc5[nH]ccc5c4)nc23)cc(OC)c1OC [compound 7, 2-(1H-Indol-5-yl)-4-(3,4,5-trimethoxyphenyl)-1H-imidazo[4,5-c]pyridine]
Fold improvement of metabolic stability in human microsomes [1]: 2–3 fold
Fold improvement of IC50 against LNCaP [2]: at least 5 fold
Major metabolites / metabolic pathway [3]: M14 is the major metabolite
inhibition at 5 µM ([4]; read-out: Inhibition of tubulin polymerization): ~33%
Fold improvement of IC50 against A375 [5]: at least 5 fold

Compound: COc1cc(C(=O)c2csc(Nc3ccccc3)n2)cc(OC)c1OC [PAT]
Oral bioavailability [10]: 21%
Oral bioavailability (F) ([10]; reference not given): > 30%

Compound: COc1cc(C(=O)c2csc(-c3ccccc3)n2)cc(OC)c1OC [SMART 10]
T1/2 in mouse liver microsomes [11]: ≪5 min

Further lines, with some results ahead:

half-life at 0.5 μM ([6]; human, liver microsomes, pH 7.4): < 0.167 h
Compound: COCOc1c(OC)cc(C(=O)c2csc(-c3ccccc3)n2)cc1OC [compound 15, (3,5-Dimethoxy-4-(methoxymethoxy)phenyl)(2-phenylthiazol-4-yl)methanone]
Major metabolites / metabolic pathway [3]: removal of the MOM group to form M1 is the major metabolic pathway

T1/2 in human liver microsomes [1]: 0.85 h and 0.845 ± 0.02 h
Fold improvement of metabolic stability in human microsomes [1]: 2–3 fold
T1/2 in rat liver microsomes [7]: 1.2 ± 0.0767 h
T1/2 in mouse liver microsomes [8]: 0.892 ± 0.04 h
Inhibition of tubulin polymerization ([4]; 5 μM): 30%
Inhibition of tubulin polymerization ([4]; 10 μM): 60%
Compound: 2-(1H-Indol-3-yl)-4-(3,4,5-trimethoxyphenyl)-1H-benzo[d]imidazole [compound 4]
Major metabolites / metabolic pathway [3]: o-demethylation (M9) and monohydroxylation (M10) are the major products

Fold change of IC50 on prostate cancer cells [9]: 2–3 fold
Compound: COc1cc(C(=O)c2csc(Nc3ccc4[nH]ccc4c3)n2)cc(OC)c1OC [compound 33, (2-((1H-Indol-5-yl)amino)thiazol-4-yl)(3,4,5-trimethoxyphenyl)methanone]

T1/2 in human liver microsomes [1]: 1.833 ± 0.0917 h
T1/2 in the tested liver microsomes species ([6]; summary over human): 1.83 to 3.75 h
T1/2 in rat liver microsomes [7]: 3.75 ± 0.21 h
T1/2 in mouse liver microsomes [8]: 2.05 ± 0.128 h
Compound: (4-(2-Aminoethyl)-3,5-dimethoxyphenyl)(2-phenylthiazol-4-yl)methanone [compound 18]
Major metabolites / metabolic pathway [3]: M6 (dealkylation) and M8 (ketone reduction) are the major metabolites
